Measured values published in US20080261936A1, “METHODS OF REDUCING THE BODY WEIGHT OF A SUBJECT BY ADMINISTERING A FATTY ACID ESTER OF AN ESTROGEN OR ESTROGEN DERIVATIVE IN AN OIL AND COMPOSITIONS CONTAINING THE SAME” (Manhattan Pharmaceuticals, Inc., priority 2006, published 2008).
Values joined by “and” are separate entries in the source; they are usually repeats but may differ in a detail not shown here. Equal values may be shown once.

Key:
[1] = Oil evaluation: solubility behavior of oleoyl-estrone, 200 mg/g in single oils; type: physicochemical
Experimental: An oil evaluation was done to determine the solubility behavior of oleoyl-estrone as a function of type of oil, concentration and temperature. The solubility of oleoyl-estrone was evaluated at concentrations of 60 mg/g and 200 mg/g. […]

[2] = Compatibility/stability of oleoyl-estrone in oil systems (appearance/color, potency, related substances); type: physicochemical
Experimental: The compatibility of oleoyl-estrone in various oil systems was also assessed. The respective stability of oleoyl-estrone in various oils was assessed following storage at (A) 25° C./60% and relative humidity (RH), (B) 40° C./75% RH, (C) 50° C. and (D) 60° C. in canola oil, safflower oil, Captex and a 2:1 Captex: Labrafil mixture. The stability test methods include appearance/color, potency, and related substances (e.g. impurities or degradant in the oleoyl-estrone and oil mixture).

[3] = 200 mg/g in Captex 300-6C at 40° C.
[4] = 200 mg/g in Captex 300 EP at 40° C.
[5] = 200 mg/g in Labrafil 1944 CS at 40° C.
[6] = 200 mg/g in Safflower at 40° C.
[7] = in 2:1 CAPTEX:LABRAFIL, One Week 25° C./60% RH
[8] = in 2:1 CAPTEX:LABRAFIL, One Week 40° C./75% RH
[9] = in 2:1 CAPTEX:LABRAFIL, One Week 50° C.
[10] = in 2:1 CAPTEX:LABRAFIL, One Week 60° C.
[11] = in 2:1 CAPTEX:LABRAFIL, Time Zero
[12] = in 2:1 CAPTEX:LABRAFIL, Two Weeks 25° C./60% RH
[13] = in 2:1 CAPTEX:LABRAFIL, Two Weeks 40° C./75% RH
[14] = in CANOLA, One Week 25° C./60% RH
[15] = in CANOLA, One Week 40° C./75% RH
[16] = in CANOLA, Three Weeks 25° C./60% RH
[17] = in CANOLA, Three Weeks 40° C./75% RH

- Solubility Cycled to 22° C. for 24 hr prior to 5° C. cycle for 96 hr ([1]; 200 mg/g in Canola): Dissolved
- Solubility After 24 hr ([1]; 200 mg/g in Canola at 40° C.): Dissolved
- Solubility After 96 hr ([1]; 200 mg/g in Canola at 40° C.): Dissolved
- Solubility Cycled to 22° C. for 24 hr prior to 5° C. cycle for 96 hr ([1]; 200 mg/g in Captex 300-6C): Dissolved
- Solubility After 24 hr [1, 3]: Dissolved
- Solubility After 96 hr [1, 3]: Dissolved
- Solubility Cycled to 22° C. for 24 hr prior to 5° C. cycle for 96 hr ([1]; 200 mg/g in Captex 300 EP): Dissolved
- Solubility After 24 hr [1, 4]: Dissolved
- Solubility After 96 hr [1, 4]: Dissolved
- Solubility Cycled to 22° C. for 24 hr prior to 5° C. cycle for 96 hr ([1]; 200 mg/g in Corn): Precipitated at 5 °C after 72 hr
- Solubility After 24 hr ([1]; 200 mg/g in Corn at 40° C.): Dissolved
- Solubility After 96 hr ([1]; 200 mg/g in Corn at 40° C.): Dissolved
- Solubility Cycled to 22° C. for 24 hr prior to 5° C. cycle for 96 hr ([1]; 200 mg/g in Labrafac): Precipitated at 5 °C after 4 hr
- Solubility After 24 hr ([1]; 200 mg/g in Labrafac at 40° C.): Dissolved
- Solubility After 96 hr ([1]; 200 mg/g in Labrafac at 40° C.): Dissolved
- Solubility Cycled to 22° C. for 24 hr prior to 5° C. cycle for 96 hr ([1]; 200 mg/g in Labrafil 1944 CS): Precipitated at 5 °C after 4 hr
- Solubility After 24 hr [1, 5]: Dissolved
- Solubility After 96 hr [1, 5]: Dissolved
- Solubility Cycled to 22° C. for 24 hr prior to 5° C. cycle for 96 hr ([1]; 200 mg/g in Labrafil M 125CS): Precipitated at 5 °C after 24 hr
- Solubility After 96 hr ([1]; 200 mg/g in Labrafil M 125CS at 40° C.): Dissolved
- Solubility Cycled to 22° C. for 24 hr prior to 5° C. cycle for 96 hr ([1]; 200 mg/g in Labrasol): Precipitated at RT not tested
- Solubility After 24 hr ([1]; 200 mg/g in Labrasol at 40° C.): Dissolved
- Solubility After 96 hr ([1]; 200 mg/g in Labrasol at 40° C.): Dissolved
- Solubility Cycled to 22° C. for 24 hr prior to 5° C. cycle for 96 hr ([1]; 200 mg/g in Olive): Precipitated at 5 °C after 4 hr
- Solubility After 24 hr ([1]; 200 mg/g in Olive at 40° C.): Dissolved
- Solubility After 96 hr ([1]; 200 mg/g in Olive at 40° C.): Dissolved
- Solubility Cycled to 22° C. for 24 hr prior to 5° C. cycle for 96 hr ([1]; 200 mg/g in Safflower): Dissolved
- Solubility After 24 hr [1, 6]: Dissolved
- Solubility After 96 hr [1, 6]: Dissolved
- Solubility Cycled to 22° C. for 24 hr prior to 5° C. cycle for 96 hr ([1]; 200 mg/g in Sesame): Precipitated at 5 °C after 5 hr
- Solubility After 24 hr ([1]; 200 mg/g in Sesame at 40° C.): Dissolved
- Solubility After 96 hr ([1]; 200 mg/g in Sesame at 40° C.): Dissolved
- Solubility Cycled to 22° C. for 24 hr prior to 5° C. cycle for 96 hr ([1]; 200 mg/g in Soybean): Dissolved
- Solubility After 24 hr ([1]; 200 mg/g in Soybean at 40° C.): Dissolved
- Solubility After 96 hr ([1]; 200 mg/g in Soybean at 40° C.): Dissolved
- Solubility and thermal stability in single oils (summary) ([1]; in safflower oil, soybean oil, canola oil and the medium chain triglycerides): soluble and thermally stable
- Mean Purity Assay [2, 7]: 101.9%
- Purity Assay [2, 7]: 100.4% and 103.3%
- Mean Purity Assay [2, 8]: 104.4%
- Purity Assay [2, 8]: 102.2% and 106.6%
- Mean Purity Assay [2, 9]: 106.8%
- Purity Assay [2, 9]: 106.6% and 107.0%
- Mean Purity Assay [2, 10]: 98.2%
- Purity Assay [2, 10]: 98.4% and 97.9%
- Mean Purity Assay ([2]; in 2:1 CAPTEX:LABRAFIL, Three Weeks 25° C./60% RH): 102.1%
- Mean Purity Assay ([2]; in 2:1 CAPTEX:LABRAFIL, Three Weeks 40° C./75% RH): 99.7%
- Mean Purity Assay ([2]; in 2:1 CAPTEX:LABRAFIL, Three Weeks 50° C.): 103.8%
- Mean Purity Assay ([2]; in 2:1 CAPTEX:LABRAFIL, Three Weeks 60° C.): 102.1%
- Mean Purity Assay [2, 11]: 104.8%
- Purity Assay [2, 11]: 105.1% and 104.9% and 103.6% and 105.2%
- Mean Purity Assay [2, 12]: 102.9%
- Purity Assay [2, 12]: 101.3% and 104.4%
- Mean Purity Assay [2, 13]: 104.5%
- Purity Assay [2, 13]: 107.3% and 101.7%
- Mean Purity Assay ([2]; in 2:1 CAPTEX:LABRAFIL, Two Weeks 50° C.): 104.0%
- Mean Purity Assay ([2]; in 2:1 CAPTEX:LABRAFIL, Two Weeks 60° C.): 106.2%
- Mean Purity Assay [2, 14]: 96.5%
- Purity Assay [2, 14]: 96.3% and 96.7%
- Mean Purity Assay [2, 15]: 95.8%
- Purity Assay [2, 15]: 95.2% and 96.4%
- Mean Purity Assay ([2]; in CANOLA, One Week 50° C.): 99.8%
- Purity Assay ([2]; in CANOLA, One Week 50° C.): 96.3% and 103.3%
- Mean Purity Assay ([2]; in CANOLA, One Week 60° C.): 98.2%
- Purity Assay ([2]; in CANOLA, One Week 60° C.): 97.8% and 98.5%
- Mean Purity Assay [2, 16]: 96.5%
- Purity Assay [2, 16]: 95.3% and 97.7%
- Mean Purity Assay [2, 17]: 98.4%
- Purity Assay [2, 17]: 94.6% and 102.2%
- Mean Purity Assay ([2]; in CANOLA, Three Weeks 50° C.): 99.4%
- Purity Assay ([2]; in CANOLA, Three Weeks 50° C.): 100.2% and 98.5%
- Mean Purity Assay ([2]; in CANOLA, Three Weeks 60° C.): 99.8%
- Purity Assay ([2]; in CANOLA, Three Weeks 60° C.): 100.4% and 99.1%
- Mean Purity Assay ([2]; in CANOLA, Time Zero): 98.1%
Structure (SMILES): CCCCCCCC/C=C\CCCCCCCC(=O)Oc1ccc2c(c1)CC[C@@H]1[C@@H]2CC[C@]2(C)C(=O)CC[C@@H]12 [oleoyl-estrone, [3(Z)]-3-[(1-oxo-9-octadecenyl)oxy]-estra-1,3,5(10)-trien-17-one]
